Like-named read-outs stand apart in the source and are kept apart here.
Tests used:
VCAM-1 [1] = assay: Cell surface ELISA for VCAM-1 in human umbilical vein endothelial cells (HUVEC), cytokine-induced (tumor necrosis factor-alpha); type: cell-based; settings: for inhibition at 50 µM: read-out: VCAM-1 (% inh. 50 μM); for IC50: eight serial dilutions, basal expression subtracted
Experimental: (§1) Cell Surface ELISA for VCAM-1/ICAM-1
(§2) Proliferating human umbilical vein endothelial cells (HUVEC) or human aortic smooth muscle cells (HASMC) from Clonetics (San Diego, Calif.) were plated onto 96-well plates in 100 μL medium per well at 20,000 cells per cm^2. The cultures were maintained in growth medium (EGM or SMGM2, Clonetics, San Diego, Calif.) for two days prior to addition of cytokines or drugs. Cytokines plus or minus compounds were added for 20 to 24 hours prior to analysis for adhesion molecule levels. Tumor necrosis factor (Genzyme, Cambridge, Mass.) was added to cultures at 500-1000 units/mL. Interleukin-4 (GIBCO-BRL, Gaithersburg, Md.) was added to cultures at 100-200 pg/mL. (Additions were made by transferring 100 μL of cytokines plus compounds serially diluted on a separate 96-well plate into the plates containing cells. The medium on the cultures was not exchanged prior to addition of effectors). The culture medium was removed, and the monolayers were washed twice with Hanks buffered saline solution (HBSS) at room temperature. The primary antibody (anti-human VCAM-1 from Upstate Biotechnology, Inc., Lake Placid, N.Y. or anti-human ICAM-1 from Immunotech, Inc., Westbrook, Me.) was added to each well (1 μg/mL in HBSS plus 5% newborn calf serum, GIBCO-BRL, Gaithersburg, Md.) and incubated at 37° C. for 1 hr. The wells were washed twice with HBSS, then 100 μL of a 1/1000 dilution of goat anti-mouse IgG conjugated to horse radish peroxidase (BioRad, Hercules, Calif.) in HBSS plus 5% newborn calf serum was added to each well and incubated for 1 hr at 37° C. The wells were washed three times with HBSS, then 100 μL of TMB substrate (BioRad, Hercules, Calif.) was added to each well. The reaction was stopped after blue color developed by addition of 50 μL of 1N H2 SO4. Absorbance is measured at 450 nm with a plate reader. IC50 values were determined from curves of absorbance values obtained from serial dilutions of compounds (dissolved in dimethyl sulfoxide).
(§3) The IC50 value is defined as the drug concentration that inhibits the cytokine-induced adhesion molecule expression by 50%. Maximal values for adhesion molecule expression in cytokine-induced cultures was subtracted from the basal level of adhesion molecule expression (minus cytokines) in the cultures to determine the level of induction. […] Each drug concentration was tested in quadruplicate wells. Single point tests of compounds at 50 μM were assayed as described for IC50 determinations, except that the data represent the level of inhibition without correction for basal expression. (Basal adhesion molecule expression was 10-20% of the total induced expression).
(§4) In these experiments, the cells were coincubated with tumor necrosis factor-alpha along with the indicated compounds about 20 to 24 hr before assaying cell surface adhesion molecule expression.
(§5) Table 3 illustrates the activity of selected compounds when eight serial dilutions of drug were tested against cytokine induction of VCAM-1 expression in both vascular endothelial and smooth muscle cells. Subtraction of basal VCAM-1 expression was also used in the calculation of IC50 values. Each compound was also tested in a similar manner for ICAM-1 inhibition. No inhibition of ICAM-1 was detected (up to 100 μM) in vascular smooth muscle cells.

ICAM-1 [2] = assay: Cell surface ELISA for ICAM-1 in human umbilical vein endothelial cells (HUVEC), cytokine-induced (tumor necrosis factor-alpha); type: cell-based; settings: for inhibition at 50 µM: Homo sapiens, HUVEC, read-out: ICAM-1 (% inh. 50 μM)
Experimental: as §1, §2, §3, §4, §5

VCAM-1 [3] = assay: Cell surface ELISA for VCAM-1 in human aortic smooth muscle cells (HASMC), cytokine-induced (interleukin-4); type: cell-based; settings: for inhibition at 50 µM: HASMC; for IC50: HSMC, eight serial dilutions, basal expression subtracted
Experimental: as §1, §2, §3
Table 1 summarizes the ability of various compounds of this invention to inhibit VCAM-1 using human aortic smooth muscle cells (HASMC). In these experiments, the cells were coincubated with interleukin-4 and the compounds listed about 20 hr before assaying cell surface VCAM-1 levels. Each column represents a separate experiment.
as §5

VCAM-1 [4] = settings: vascular endothelial cells; cited from earlier work
ICAM-1 [5] = settings: vascular endothelial cells; cited from earlier work
[6] = tested on: human umbilical vein endothelial cells (HUVEC); assay: Loss of HUVEC adherence to the tissue culture surface (microscope); type: cell-based; settings: vascular endothelial cells; 50 and 100 μM; observed with a microscope
VCAM-1 [7] = assay: In vivo inhibition of LPS-induced VCAM-1 upregulation in rabbit aorta (immunohistochemistry); set-up: species or system New Zealand white rabbits; settings: 0.4% in diet for three weeks; LPS 40 μg/animal i.v.; aorta 4 hr after LPS; when adequately accumulated
Description: FIG. 1 illustrates the effect of 2,6-di-t-butyl-4-[(dimethylphenylsilyl)methylthio]phenol (MDL 29,353) on LPS induced VCAM-1 expression in rabbit aorta in vivo. Data are expressed as the percent of the aortic surface endothelium expressing VCAM-1 as measured by immunostaining with an anti-rabbit VCAM-1 antibody.
In Vivo Inhibition of VCAM-1 Upregulation by MDL 29,353 in Rabbit Aorta
New Zealand white rabbits were fed a diet of chow plus or minus 0.4% MDL 29,353 for three weeks prior to challenge with lipopolysaccharide (LPS, 40 μg/animal, i.v. ear vein). The aorta was removed from each animal 4 hr after LPS injection and rinsed briefly in phosphate buffered saline. VCAM-1 was immunohistochemistry was performed by incubating the tissues with RB1/9 antibody (mouse anti-rabbit VCAM-1) at 4° C. overnight. The bound RB1/9 was detected using a biotinylated goat anti-mouse secondary antibody (60 min, RT). VCAM-1 staining was accomplished by addition of streptavidin-alkaline phosphatase conjugate (30 min, RT) followed by an incubation with BT Red (Biotec, 10, RT). Images of the stained tissues were captured using an image analysis system for determination of the percentages of the aortic endothelium showing immunoreactivity with anti-VCAM antibody.

[8] = 20 h, read-out: HSMC-1 (% inh. 50 μM) VCAM-1
[9] = 20 h, read-out: HSMC-2 (% inh. 50 μM) VCAM-1
[10] = 20 h, read-out: HSMC-3 (% inh. 50 μM) VCAM-1
[11] = 50 μM, TNF-alpha, 20 to 24 hr, average of three runs
[12] = 50 μM, TNF-alpha, 20 to 24 hr, average of two runs
[13] = HSMC-1 experiment, 50 μM, interleukin-4, about 20 hr, no correction for basal expression, read-out: HSMC-1 (% inh. 50 μM) VCAM-1
[14] = HSMC-2 experiment, 50 μM, interleukin-4, about 20 hr, no correction for basal expression, read-out: HSMC-2 (% inh. 50 μM) VCAM-1
[15] = HSMC-3 experiment, 50 μM, interleukin-4, about 20 hr, no correction for basal expression, read-out: HSMC-3 (% inh. 50 μM) VCAM-1
[16] = average of HSMC-1, HSMC-2, HSMC-3, 50 μM, read-out: VCAM-1 (Avg.) % inh.

Compound	inhibition at 50 µM (VCAM-1 [1])	inhibition at 50 µM (ICAM-1 [2])	inhibition at 50 µM (VCAM-1 [3]; [8])	inhibition at 50 µM (VCAM-1 [3]; [9])	inhibition at 50 µM (VCAM-1 [3]; [10])	inhibition at 50 µM (VCAM-1 [3]; read-out: VCAM-1 (Avg.) % inh.)	inhibition at 50 µM (VCAM-1 [1]; [11])	IC50 (VCAM-1 [1])	inhibition at 50 µM (VCAM-1 [3]; [13])	inhibition at 50 µM (VCAM-1 [3]; [14])	inhibition at 50 µM (VCAM-1 [3]; [15])	inhibition at 50 µM (VCAM-1 [3]; [16])	IC50 (VCAM-1 [3])	further results
CC(C)(C)c1cc(OC[Si](C)(C)c2ccc(Cl)cc2)cc(C(C)(C)C)c1O [MDL 104,280, 2,6-Di-t-butyl-4-[(4-chlorophenyldimethylsilyl)methyloxy]phenol]	27.3%	22%	54.7%	63%	44%	53.9%	–	–	–	–	–	–	–	–
S=C(S)N1CCCC1 [pyrollidine dithiocarbamate]	–	–	–	–	–	–	–	–	–	–	–	–	–	Inhibition of cytokine-induced expression of VCAM-1 (VCAM-1 [4]): inhibit cytokine-induced expression of VCAM-1; Inhibition of cytokine-induced expression of ICAM-1 (ICAM-1 [5]): not ICAM-1
Cc1cc(OC[Si](C)(C)c2ccccc2)cc(C)c1O [MDL 103,719, 2,6-Dimethyl-4-[(dimethylphenylsilyl)methyloxy]phenol]	17%	77%	–	49%	42%	45.5%	–	–	–	–	–	–	–	–
CC(C)(C)c1cc(SC[Si](C)(C)C)cc(C(C)(C)C)c1O [MDL 28,235, 2,6-Di-t-butyl-4-[(trimethylsilyl)methylthio]phenol]	4.3%	–	7.8%	18%	42%	22.6%	–	–	–	–	–	–	–	–
CC(=O)N[C@@H](CS)C(=O)O [N-acetylcysteine]	–	–	–	–	–	–	–	–	–	–	–	–	–	Inhibition of cytokine-induced expression of VCAM-1 (VCAM-1 [4]): inhibit cytokine-induced expression of VCAM-1; Inhibition of cytokine-induced expression of ICAM-1 (ICAM-1 [5]): not ICAM-1
Cc1cc(SC[Si](C)(C)c2ccccc2)cc(C(C)(C)C)c1O [MDL 104,518, 2-t-butyl-6-methyl-4-[(dimethylphenylsilyl)methylthio]phenol]	–	78%	4.4%	47%	26%	25.8%	–	–	–	–	–	–	–	–
CC(C)(C)c1cc(OC[Si](C)(C)c2ccccc2)cc(C(C)(C)C)c1O [MDL 103,902, 2,6-Di-t-butyl-4-[(dimethylphenylsilyl)methyloxy]phenol]	–	–	–	–	–	–	25.3%	11 µM	49%	60%	43%	50.7%	5 µM	Inhibition of ICAM-1 expression in vascular endothelial cells (ICAM-1 [2]; 50 and 100 μM, could be accounted for by loss of cell adherence): significant inhibition of ICAM-1 expression; inhibition at 50 µM (ICAM-1 [2]; [12]): 39%; Cell adherence to the tissue culture surface [6]: loss of cell adherence
COc1ccc([Si](C)(C)COc2cc(C(C)(C)C)c(O)c(C(C)(C)C)c2)cc1 [MDL 105,074, 2,6-Di-t-butyl-4-[(dimethyl-4-methoxyphenylsilyl)methyloxy]phenol]	–	–	–	–	–	–	20%	12 µM	28.3%	52%	47%	42.4%	40 µM	–
CC(C)(C)c1cc(SC[Si](C)(C)c2ccccc2)cc(C(C)(C)C)c1O [MDL 29,353, 2,6-Di-t-butyl-4-[(dimethylphenylsilyl)methylthio]phenol]	–	–	–	–	–	–	8.7%	19 µM	58%	60%	46%	54.7%	10 µM	inhibition at 50 µM (ICAM-1 [2]; [12]): 6%; Inhibition of LPS induced VCAM-1 expression in rabbit aortic endothelium (FIG. 1) (VCAM-1 [7]): can inhibit the LPS induced level of VCAM-1 expression in rabbit aortic endothelium
